The record followed here is patent US7476767B2, “Alpha-hydroxy sulfonate aldehydes, germicidal compositions containing the alpha-hydroxy sulfonate aldehydes, or mixtures of alpha-hydroxy sulfonate aldehydes and phthalaldehydes, and methods of using the compounds or compositions for disinfection or sterilization” (Ethicon, Inc., priority 2004, dated 2009).

For series [1], the system named is Mycobacterium terrae bacteria. As to the kind of experiment: Bacterial suspension test. As to conditions: for Log Reductions/mL: 20° C.; for Germicidal Efficacy: Table 14 summary. It is filed as cell-based. As for the experimental part:
In this test method, 9 mL of the germicide to be tested is placed in a tube, put into a water bath and allowed to come to the desired temperature. One mL of the test organism, including at least 7 logs/mL of Mycobacterium terrae bacteria, is added to the 9 mL of the germicide to be tested. […] It will be appreciated by those skilled in the art that other concentrations may be utilized by proper dilution and accounting. At appropriate time intervals, 1 mL aliquots of the germicide-cell suspension were removed and added directly into 9 mL of a 1% glycine solution (neutralizer) and mixed thoroughly to neutralize the germicide in the transferred suspension. The glycine solution was prepared from solid glycine, which is available from VWR Scientific Products, among others. The above-identified 10 mL neutralized solution was then poured through a membrane filter having an average pore size of 0.45 micrometers. The filter was then rinsed twice with at least 150 mL of the 1% glycine solution per rinse. The filter was then placed on an agar plate and incubated for twenty-one days at 37° C. In the above procedure, if dilution was needed, then the 1 mL germicidal-cell suspension was diluted in 99 mL of a phosphate buffer before addition to the 9 mL of the 1% glycine solution. The phosphate buffer was DiLu-LoK™ Butterfields Phosphate Buffer, available from Hardy Diagnostics, of Santa Maria, Calif. The surviving colonies are then counted. The data is plotted as S/So vs. time. So is the initial count of the bacteria in the above 10 mL solution which is at least 10^6 bacteria/mL, and S is the surviving bacteria from the above filter on the agar plate. The results of the experiments were presented in terms of log reductions. Log reduction is the difference between log(So) and log(S). As one example, if log(So)=6.2, and if there were 100 survivors, then the log(S)=2, and the log reduction was reported as 4.2.

Another series can be described thus: Solubility in water. The series is classed as physicochemical.

Consider 4-pyridinyl-propanedial, for which the “Log Reductions/mL” value in series [1] (Saturated (~2.3% w/v), 5 min) is listed as 4.0 log reductions/mL.

On to `O=Cc1ccc(Br)cc1C=O` [4-bromo-phthalaldehyde], for which, in series [1] (0.1%, 30 min exposure), the “Log Reductions/mL” value is “Total Kill”. Regarding `O=Cc1ccc(Cl)cc1C=O` [4-chloro-phthalaldehyde], the “Log Reductions/mL” value in series [1] (2.7 w/v % in 20% isopropanol, 5 min) is “Total Kill”.

For `O=Cc1ccc(F)cc1C=O` [4-fluoro-phthalaldehyde], the “Log Reductions/mL” value in series [1] (0.25%, 60 min exposure) is “Total Kill”.

In the case of `O=Cc1ccccc1C(O)S(=O)(=O)[O-].[Na+]` (centres unmarked) [(2-formyl-phenyl)-hydroxy-methane sulfonic acid,sodium salt], the “Log Reductions/mL” value in series [1] (9.1%, 5 min) is “Confluent”.

`O=Cc1cccc(C=O)c1` [IPA, isophthalaldehyde]: the “Log Reductions/mL” value in series [1] (Table 11: 0.3%, dissolved in 20% isopropanol, 5 min) is reported as “Confluent”; in series [1] (Table 15: 0.3%, dissolved in 20% isopropanol, 5 min), “Confluent”. For the same compound, in series [1], the “Germicidal Efficacy” value was “Poor”. Consider `O=Cc1ccccc1C=O` [OPA, phthalaldehyde], for which the “Germicidal Efficacy” value in series [1] was “Good”. Also, the solubility in water result in “Solubility in water” is “about 5 % by weight”.

As to `O=Cc1ccc(C=O)cc1` [TPA, terephthalaldehyde], in series [1] (0.2%, dissolved in 20% isopropanol, 5 min), the “Log Reductions/mL” value is listed as “Confluent”. Further, in series [1], the “Germicidal Efficacy” value is “Poor”.

On to `O=CC(C=O)c1ccccc1` [phenyl-propanedial], for which, in series [1] (Table 15: ~1%, 5 min), the “Log Reductions/mL” value is 4.5 log reductions/mL. The solubility in water entry in the series “Solubility in water” is given as “about 1%”.
